One block for each molecule: values may come before it.
Assay: solvent given as SMILES
[1] = in c1ccc2c(c1)c1ccccc1n2-c1ccc(-c2ccc(-n3c4ccccc4c4ccccc43)cc2)cc1

SMILES: CCC1=C(C)C(=O)n2c1cc1c(C)c(CC(=O)O)c(C)n1c2=O
emission maximum (in CO): 535 nm
emission maximum (in CS(C)=O): 505 nm
emission maximum (in ClC(Cl)Cl): 485 nm
emission maximum (in c1ccccc1): 465 nm

SMILES: CCCCN(CCCC)c1ccc(C#Cc2cc(C#Cc3ccc(C#N)cc3)c(C#Cc3ccc(N(CCCC)CCCC)cc3)cc2C#Cc2ccc(C#N)cc2)cc1
emission maximum (in ClCCl): 563 nm
emission maximum (in c1ccccc1): 530 nm

SMILES: c1ccc(-c2nnc(-c3cc(-c4nnc(-c5ccccc5)o4)c(-n4c5ccccc5c5ccccc54)cc3-n3c4ccccc4c4ccccc43)o2)cc1
emission maximum (in Cc1ccccc1): 439 nm
emission maximum (in O=P(c1ccccc1)(c1ccccc1)c1ccccc1Oc1ccccc1P(=O)(c1ccccc1)c1ccccc1): 459 nm

SMILES: O=c1oc2ccc(Cl)cc2cc1-c1cc2cc(Cl)ccc2o1
emission maximum (in CC#N): 431 nm
emission maximum (in CCOC(C)=O): 429 nm
emission maximum (in CS(C)=O): 488 nm
emission maximum (in Cc1ccccc1): 433 nm
emission maximum (in O): 473 nm

SMILES: [NH3+]c1ccc2c(c1)Cc1ccccc1-2
emission maximum (in O): 314 nm

SMILES: F[B-]1(F)n2c(c3cccc4cccc2c43)=Nc2ccc3ccccc3[n+]21
emission maximum (in C1CCOC1): 508 nm
emission maximum (in CC#N): 505 nm
emission maximum (in CCCCCC): 502 nm
emission maximum (in Cc1ccccc1): 511 nm
emission maximum (in ClCCl): 536 nm

SMILES: CC(C)(C)NC1=C2C=CC=[N+]2[B-](F)(F)n2cccc21
emission maximum (in C1CCCCC1): 503 nm
emission maximum (in CC(C)=O): 492 nm
emission maximum (in CCO): 494 nm
emission maximum (in CCOC(C)=O): 498 nm
emission maximum (in CO): 491 nm
emission maximum (in OCC(F)(F)F): 497.5 nm

SMILES: c1ccc(N(c2ccccc2)c2ccc3c(ccc4nc5ccc6cc(N(c7ccccc7)c7ccccc7)ccc6c5nc43)c2)cc1
emission maximum (in C1CCCCC1): 492 nm
emission maximum (in C1CCOC1): 552 nm
emission maximum (in CN(C)C=O): 626 nm
emission maximum (in Cc1ccccc1): 512 nm
emission maximum (in ClCCl): 576 nm

SMILES: c1ccc(-c2nc(-c3ccccc3)nc(-c3ccc(N4c5ccccc5CCc5ccccc54)cc3)n2)cc1
emission maximum (in Cc1ccccc1): 422.22 nm

SMILES: O=c1oc2c(ccc3cc(O)ccc32)nc1-c1ccccc1
emission maximum (in c1ccccc1): 487 nm

SMILES: Fc1nc(F)c(F)c(C#Cc2ccccc2C#Cc2c(F)c(F)nc(F)c2F)c1F
emission maximum (in CC#N): 370 nm

SMILES: O=Cc1ccc(C#CC(C#Cc2ccc(C=O)s2)=Cc2ccc(C=C(C#Cc3ccc(C=O)s3)C#Cc3ccc(C=O)s3)cc2)s1
emission maximum (in ClC(Cl)Cl): 533 nm

SMILES: COc1cc(OC)cc(C2=C3C(C)=C(I)C(C)=[N+]3[B-](F)(F)n3c(/C=C/c4ccsc4)c(I)c(C)c32)c1
emission maximum (in C1CCOC1): 610 nm
emission maximum (in CS(C)=O): 621 nm
emission maximum (in ClCCl): 610 nm

SMILES: C[Si]1(C)O[Si](C)(C)c2cc3nc4ccc([N+](=O)[O-])cc4c(-c4ccccc4)c3cc2[Si](C)(C)O1
emission maximum (in ClCCl): 520 nm

SMILES: CCC1=C(C)C(=O)n2c1cc1c(c(C)c(C(=O)OC)n1C)c2=O
emission maximum (in C1CCCCC1): 435 nm
emission maximum (in CO): 501 nm
emission maximum (in CS(C)=O): 482 nm
emission maximum (in ClC(Cl)Cl): 455 nm
emission maximum (in c1ccccc1): 447 nm

SMILES: COC(=O)CCC1=CC(C#Cc2ccsc2)=[N+]2C1=Cc1c(CCC(=O)OC)cc(C#Cc3ccsc3)n1[B-]2(F)F
emission maximum (in ClCCl): 653 nm

SMILES: Cc1nc(-c2cc(C(F)(F)F)ccc2O)n2c1CCCC2
emission maximum (in ClCCl): 432 nm

SMILES: N#Cc1ccc(C#Cc2ccc(C#Cc3ccccc3C#N)cc2C#N)cc1
emission maximum (in ClC(Cl)Cl): 370 nm

SMILES: CN(C)c1cccc2c1ccc1c(=O)oc(-c3ccc(C(F)(F)F)cc3)cc12
emission maximum (in CC(C)=O): 611 nm
emission maximum (in CCCCCCCCO): 585 nm
emission maximum (in CCCCO): 586 nm
emission maximum (in CCCO): 591 nm
emission maximum (in CCO): 602 nm
emission maximum (in CCOC(C)=O): 578 nm
emission maximum (in CN(C)C=O): 614 nm
emission maximum (in CO): 612 nm
emission maximum (in ClC(Cl)Cl): 538 nm

SMILES: CCOC(=O)CCCCCn1c2ccc(C)cc2c(=O)c2cc3c(cc21)c(=O)c1cc(C)ccc1n3CCCCCC(=O)OCC
emission maximum (in CO): 565 nm

SMILES: CC1=C(I)C(C)=[N+]2C1=C(c1c(-c3ccccn3)nc3ccccn13)c1c(C)c(I)c(C)n1[B-]2(F)F
emission maximum (in ClCCl): 580 nm

SMILES: COc1ccc(/N=N/c2c(O)c3ccccc3n(C)c2=O)c(S(=O)(=O)O)c1
emission maximum (in C1CCOC1): 527 nm
emission maximum (in CC(C)=O): 528 nm
emission maximum (in CCOC(C)=O): 525 nm
emission maximum (in CO): 532 nm
emission maximum (in CS(C)=O): 548 nm
emission maximum (in Cc1ccccc1): 519 nm
emission maximum (in ClCCl): 542 nm
emission maximum (in O): 583 nm

SMILES: CCCCCCCCc1ccc(-c2c3cc(-c4cc(CCCCCCCC)c(-c5ccc(-c6sc(/C=C7\SC(N8CCCCC8)=NC7=O)cc6CCCCCCCC)s5)s4)sc3c(-c3ccc(CCCCCCCC)s3)c3cc(-c4cc(CCCCCCCC)c(-c5ccc(-c6sc(/C=C7\SC(N8CCCCC8)=NC7=O)cc6CCCCCCCC)s5)s4)sc23)s1
emission maximum (in ClC(Cl)Cl): 576 nm

SMILES: CC(=O)c1ccc(NC(=O)c2ccc(N(C)C)cc2)cc1
emission maximum (in C1CCCCC1): 345 nm
emission maximum (in C1CCOC1): 468 nm
emission maximum (in CC#N): 550 nm
emission maximum (in CCOCC): 470 nm

SMILES: c1ccc(-c2nc3sc4ccccc4c3s2)cc1
emission maximum (in CS(C)=O): 412 nm

SMILES: CCOC(=O)CCCCCn1c2ccc(N)cc2c(=O)c2cc3c(cc21)c(=O)c1cc(N)ccc1n3CCCCCC(=O)OCC
emission maximum (in ClCCl): 608 nm

SMILES: c1ccc2c(c1)c1ccccc1n2-c1ccc(-c2cc3ccc(-c4ccc5cc(-c6ccc(-n7c8ccccc8c8ccccc87)cc6)oc5c4)cc3o2)cc1
emission maximum (in Cc1ccccc1): 407 nm
emission maximum [1]: 419 nm

SMILES: CCN(CC)c1ccc2cc(/C=C/C(=C(C#N)C#N)c3ccc(N(c4ccccc4)c4ccccc4)cc3)c(=O)oc2c1
emission maximum (in CC(C)=O): 621 nm
emission maximum (in CCOC(C)=O): 599 nm
emission maximum (in CN(C)C=O): 636 nm
emission maximum (in CS(C)=O): 643 nm
emission maximum (in Cc1ccccc1): 576 nm
emission maximum (in ClCCl): 581 nm

SMILES: COc1ccc(OC)c(C=O)c1
emission maximum (in CC(C)=O): 410 nm
emission maximum (in CCCO): 458 nm
emission maximum (in CCO): 459 nm
emission maximum (in CNC=O): 458 nm
emission maximum (in CO): 466 nm
emission maximum (in CS(C)=O): 431 nm
emission maximum (in ClC(Cl)Cl): 427 nm
emission maximum (in NC=O): 464 nm

SMILES: N#Cc1c(N2CCCCC2)cc(-c2cccc3ccccc23)c2c1-c1ccccc1C2=O
emission maximum (in C1CCOC1): 526 nm

SMILES: CCCCCCCCCCC(CCCCCCCCCC)Cn1c2cc(-c3ccc(C(C)(C)C)cc3)c3cccc4c5ccc6c7cc(-c8cc(C(C)(C)C)cc(C(C)(C)C)c8)n8c7c(c7cc1c(c5c76)c2c34)=C1C=CC(c2cc(C(C)(C)C)cc(C(C)(C)C)c2)=[N+]1[B-]8(F)F
emission maximum (in Cc1ccccc1): 830 nm

SMILES: COc1ccc2n1[B-](F)(F)[N+]1=CC=CC1=C2c1ccccc1
emission maximum (in CC#N): 513 nm
emission maximum (in CCCCCC): 514 nm
emission maximum (in CCOC(C)=O): 514 nm
emission maximum (in CO): 512 nm
emission maximum (in ClCCl): 518 nm

SMILES: CC1(C)C(/C=C/C=C/C=C/C=C2/N(CCCCCC(=O)O)c3ccc(S(=O)(=O)[O-])cc3C2(C)C)=[N+](CCCCS(=O)(=O)[O-])c2ccc(S(=O)(=O)[O-])cc21
emission maximum (in CO): 774 nm
emission maximum (in O): 771 nm

More lines, main results first:

emission maximum (in ClCCl): 419 nm
SMILES: CC(C)(C)NC(=O)c1cc2ccccc2c2ccc3c4ccccc4c4ccccc4c3c12

emission maximum (in ClC(Cl)Cl): 379 nm
SMILES: CC(C)(C)c1ccc2oc3nc4oc5ccc(N(c6ccccc6)c6ccccc6)cc5c4cc3c2c1

emission maximum (in C1CCOC1): 406 nm
SMILES: CC(C)(C)c1ccc(-c2c(-c3ccc(N(c4ccccc4)c4ccccc4)cc3)cc(-c3ccc(N(c4ccccc4)c4ccccc4)cc3)c(-c3ccc(C(C)(C)C)cc3)c2-c2ccc(C(C)(C)C)cc2)cc1

emission maximum (in CS(C)=O): 381 nm
SMILES: CCCn1c(-c2cc(-c3nc4ccccc4n3CCC)cc(-c3nc4ccccc4n3CCC)c2)nc2ccccc21

emission maximum (in C1CCOC1): 456 nm
SMILES: COc1cc2c(cc1-c1ccncc1)Cc1c3c(c4c(c1-2)-c1cc(OC)c(-c2ccncc2)cc1C4)C(=O)N(CCC(C)C)C3=O

emission maximum (in ClCCl): 438 nm
SMILES: CC1(C)c2ccccc2-c2cc3c(cc21)c1ccccc1n3-c1ccc2ccccc2n1

emission maximum (in ClCCl): 436 nm
SMILES: CC(C)(C)c1ccc2c(c1)-c1c3c(c4c5c1-c1cc(C(C)(C)C)ccc1OB5Oc1ccc(C(C)(C)C)cc1-4)-c1cc(C(C)(C)C)ccc1OB3O2

emission maximum (in ClCCl): 440 nm
SMILES: C1=Cc2ccc(N(c3ccccc3)c3ccccc3)cc2Cc2cc(N(c3ccccc3)c3ccccc3)ccc21

emission maximum (in ClC(Cl)Cl): 498 nm
SMILES: c1ccc(-c2nc(-c3ccc(N4CCCC4)cc3)cc(-c3ccc4ccccc4c3)n2)cc1

emission maximum (in C1CCCCC1): 359 nm
SMILES: c1ccc(-c2ccc(-c3ccc4c(c3)CCCO4)cc2)cc1

emission maximum (in CC#N): 444 nm
SMILES: c1ccc(N(c2ccccc2)c2ccc(-c3nc4ccccc4n3-c3ccccc3)cc2)cc1

emission maximum (in ClCCl): 418 nm
SMILES: Cc1cccc(-c2c3ccccc3cc3ccccc23)n1

emission maximum (in ClCCl): 704 nm
SMILES: CC(C)CCCC(C)CCN1C(=O)c2ccc3c(-c4ccccc4)c4c5ccc6c7c(ccc(c(-c8ccccc8)c4c4ccc(c2c34)C1=O)c75)C(=O)N(CCC(C)CCCC(C)C)C6=O (centres undefined)

emission maximum (in C1CCCCC1): 630 nm
emission maximum (in CCOC(C)=O): 665 nm
SMILES: CC1=[N+]2C(=C(Oc3ccccc3)c3ccc(C)n3[B-]2(F)F)C=C1c1cc2n(c1)[B-](F)(F)[N+]1=CC=CC1=C2c1c(C)cc(C)cc1C

emission maximum (in ClCCl): 409 nm
SMILES: CC(C)(C)c1ccc(-c2c3c(c(-c4ccc(C(C)(C)C)cc4)c4cc5ccccc5cc24)Cc2c(c(-c4ccc(C(C)(C)C)cc4)c4cc5ccccc5cc4c2-c2ccc(C(C)(C)C)cc2)C3)cc1

emission maximum (in C1CCOC1): 555 nm
SMILES: CC(C)(C)c1ccc(C2=C(c3ccc(-n4c5ccc(C(C)(C)C)cc5c5cc(C(C)(C)C)ccc54)cc3)S(=O)(=O)c3c2sc(-c2ccc(-n4c5ccc(C(C)(C)C)cc5c5cc(C(C)(C)C)ccc54)cc2)c3-c2ccc(C(C)(C)C)cc2)cc1

emission maximum (in ClC(Cl)Cl): 461 nm
SMILES: COc1ccc(C2=Cc3c4ccccc4c4ccccc4[n+]3[B-](F)(F)O2)cc1

emission maximum (in ClC(Cl)Cl): 552 nm
SMILES: CCCCCCN1C(=O)C(c2ccc(-c3ccc(-n4c5ccccc5c5ccccc54)cc3)cc2)=C(c2ccc(-c3ccc(-n4c5ccccc5c5ccccc54)cc3)cc2)C1=O
emission maximum [1]: 580 nm

emission maximum (in ClC(Cl)Cl): 594 nm
SMILES: CCOC(CN1C(=O)C2=C(c3cc4cc(C(C)(C)C)cc(C(C)(C)C)c4o3)N(CC(OCC)OCC)C(=O)C2=C1c1cc2cc(C(C)(C)C)cc(C(C)(C)C)c2o1)OCC

emission maximum (in C1CCCCC1): 568 nm
SMILES: c1ccc(-c2cc3cccc[n+]3[b-]3ccc(-c4cc[b-]5c(c4)c(-c4ccccc4)cc4cccc[n+]54)cc32)cc1

From the Deep4Chem optical property database
